# From patent publication US20230301298A1, “Biocide Compositions” (BASF SE, priority 2020, published 2023)
# Where “and” joins values, the source holds several entries; their conditions need not be identical. Equal values may be shown once.
# Assays:
# [1] = Solubility of azoxystrobin in three components solvent system; format: physicochemical
# Method: Component (A1) and component (A2) were mixed and heated to a temperature in the range of 20° C. to 100° C. to obtain a solution. Respective amount of the biocide was charged to the above solution at a temperature in the range of 20° C. to 100° C. to obtain the solution containing biocide. Emulsifier and other optional ingredients were charged o to the above biocide containing solution to obtain the emulsifiable composition (C). It is evident from table 1 to 5 that the biocides can be solubilised in a combination of at least one component (A1) and at least one component (A2) and which can be further formulated to stable emulsion concentrate. It can be inferred from table 4 that the tebuconazole can be formulated to an emulsifiable concentrate compared to suspension concentrate or emulsion concentrate in aromatic solvent system. Further, table 5 discloses that a three components solvent system also aids in solubilizing the biocides or adding water to two-components solvent system can improve the solubility of the biocide(s).
# [2] = Solubility of biocide in two-component solvent system (A1:A2); format: physicochemical
# Method: Component (A1) and component (A2) were mixed and heated to a temperature in the range of 20° C. to 100° C. to obtain a solution. Respective amount of the biocide was charged to the above solution at a temperature in the range of 20° C. to 100° C. to obtain the solution containing biocide. Emulsifier and other optional ingredients were charged o to the above biocide containing solution to obtain the emulsifiable composition (C).
# [3] = solvent system 2-phenylethanol : Formic acid, molar ratio 1:2
# [4] = solvent system 2-phenylethanol : Formic acid, molar ratio 2:1
# [5] = solvent system 2-phenylethanol : Methyl salicylate, molar ratio 1:1
# [6] = solvent system 2-phenylethanol : Methyl salicylate, molar ratio 2:1
# [7] = solvent system 4-methylcyclohexanol : Methyl salicylate, molar ratio 1:2
# [8] = solvent system Cyclohexanol : D,L-Lactic acid, molar ratio 1:1
# [9] = solvent system Thymol : Phenyl acetic acid, molar ratio 2:1
# [10] = solvent system formic acid : Methyl salicylate, molar ratio 2:1
compound,measurement,setting,value
CO/C=C(/C(=O)OC)c1ccccc1Oc1cc(Oc2ccccc2C#N)ncn1 [Azoxystrobin],Solubility of Azoxystrobin wt. % in total (C),"[1]; 2-Phenoxyethanol:Methyl Salicylate:Water (tap), molar ratio 1:1:0.5",24 wt. %
same,Solubility of Azoxystrobin wt. % in total (C),"[1]; 2-Phenoxyethanol:Methyl salicylate:D,L-Lactic acid, molar ratio 1:1:2",29 wt. %
same,Solubility of Azoxystrobin wt. % in total (C),"[1]; 2-Phenoxyethanol:Veratrole:D,L-Lactic acid, molar ratio 1:1:2",21 wt. %
same,Solubility of Azoxystrobin wt. % in total (C),"[1]; 2-Phenoxyethanol:Veratrole:Water (tap), molar ratio 1:2:0.5",25 wt. %
same,Solubility of Azoxystrobin wt. % in total (C),"[1]; 2-Phenylethanol:Methyl Salicylate:Water (tap), molar ratio 1:1:0.5",25 wt. %
same,Solubility of Azoxystrobin wt. % in total (C),"[1]; 2-Phenylethanol:phenyl acetic acid:Water (tap), molar ratio 2:1:0.5",25 wt. %
same,Solubility wt. % in total (C),"[2]; solvent system 2-phenoxyethanol : D,L-Lactic acid, molar ratio 1:1",36 wt. %
same,Solubility wt. % in total (C),"[2]; solvent system 2-phenoxyethanol : D,L-lactic acid, molar ratio 1:2",20 wt. %
same,Solubility wt. % in total (C),"[2]; solvent system 2-phenoxyethanol : Methyl salicylate, molar ratio 1:1",19 wt. %
same,Solubility wt. % in total (C),"[2]; solvent system 2-phenoxyethanol : Veratrole, molar ratio 2:1",23 wt. %
same,Solubility wt. % in total (C),"[2]; solvent system 2-phenylethanol : D,L-Lactic acid, molar ratio 1:1",25 wt. %
same,Solubility wt. % in total (C),"[2]; solvent system 2-phenylethanol : D,L-Lactic acid, molar ratio 2:1",22 wt. %
same,Solubility wt. % in total (C),[2]; [3],20 wt. %
same,Solubility wt. % in total (C),[2]; [4],20 wt. %
same,Solubility wt. % in total (C),[2]; [5],27 wt. %
same,Solubility wt. % in total (C),"[2]; solvent system 2-phenylethanol : Methyl salicylate, molar ratio 1:2",25 wt. % and 24 wt. %
same,Solubility wt. % in total (C),[2]; [6],27 wt. % and 23 wt. %
same,Solubility wt. % in total (C),"[2]; solvent system 2-phenylethanol : Phenyl acetic acid, molar ratio 2:1",25 wt. %
same,Solubility wt. % in total (C),"[2]; solvent system 4-isopropylbenzylalcohol : Phenyl acetic acid, molar ratio 2:1",24 wt. %
same,Solubility wt. % in total (C),"[2]; solvent system 4-methylcyclohexanol : Hydroxy pivalic acid, molar ratio 2:1",24 wt. %
same,Solubility wt. % in total (C),[2]; [7],20 wt. %
same,Solubility wt. % in total (C),"[2]; solvent system Carvacrol : 2-ethylphenol, molar ratio 1:2",<49 wt. %
same,Solubility wt. % in total (C),[2]; [8],20 wt. %
same,Solubility wt. % in total (C),"[2]; solvent system Cyclohexanol : D,L-Lactic acid, molar ratio 1:2",20 wt. %
same,Solubility wt. % in total (C),"[2]; solvent system Cyclohexanol : Hydroxy pivalic acid, molar ratio 2:1",21 wt. %
same,Solubility wt. % in total (C),"[2]; solvent system D,L-Lactic acid : 1,2-dimethoxy benzene, molar ratio 2:1",32 wt. %
same,Solubility wt. % in total (C),"[2]; solvent system D,L-Lactic acid : 2-phenoxyethanol, molar ratio 1:1",23 wt. %
same,Solubility wt. % in total (C),"[2]; solvent system D,L-Lactic acid : 4-acetylanisole, molar ratio 2:1",22 wt. %
same,Solubility wt. % in total (C),"[2]; solvent system D,L-Lactic acid : 4-isopropylbenzyl alcohol, molar ratio 2:1",33 wt. %
same,Solubility wt. % in total (C),"[2]; solvent system D,L-Lactic acid : Veratrole, molar ratio 2:1",24 wt. %
same,Solubility wt. % in total (C),"[2]; solvent system Formic acid : 1,2-dimethoxy benzene, molar ratio 2:1",49 wt. %
same,Solubility wt. % in total (C),"[2]; solvent system Thymol : (L)-menthol, molar ratio 1:1",28 wt. %
same,Solubility wt. % in total (C),[2]; [9],60 wt. %
same,Solubility wt. % in total (C),"[2]; solvent system formic acid : Methyl salicylate, molar ratio 1:2",27 wt. %
same,Solubility wt. % in total (C),[2]; [10],40 wt. %
CS(=O)(=O)c1ccc(C(=O)C2C(=O)CCCC2=O)c([N+](=O)[O-])c1 [Mesotrione],Solubility wt. % in total (C),[2]; [9],20 wt. %
CC(C)(C)C(O)(CCc1ccc(Cl)cc1)Cn1cncn1 (stereo not shown) [Tebuconazole],Solubility wt. % in total (C),"[2]; solvent system 2-phenylethanol : Formic acid, molar ratio 1:1",40 wt. %
same,Solubility wt. % in total (C),[2]; [3],40 wt. %
same,Solubility wt. % in total (C),[2]; [4],35 wt. %
same,Solubility wt. % in total (C),[2]; [5],38 wt. %
same,Solubility wt. % in total (C),[2]; [6],42 wt. %
same,Solubility wt. % in total (C),[2]; [7],35 wt. %
same,Solubility wt. % in total (C),[2]; [8],47 wt. %
same,Solubility wt. % in total (C),"[2]; solvent system Cyclohexanol : Methyl salicylate, molar ratio 1:2",38 wt. %
same,Solubility wt. % in total (C),[2]; [9],36 wt. %
same,Solubility wt. % in total (C),[2]; [10],50 wt. %
